In PubChem BioAssay (NCI):
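Test compounds were applied to cells in 96-well plates for 48 hours at 5 doses. TGI is the concentration that stops growth completely.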

What was measured:
Test in all cases: growth of human tumour cells (NCI), 48 h
OVCAR-4 ovarian = system: OVCAR-4 ovarian
DLD-1 colon = system: DLD-1 colon
SN12C renal = system: SN12C renal
HOP-18 NSCLC = system: HOP-18 NSCLC
LOX IMVI melanoma = system: LOX IMVI melanoma
M19-MEL melanoma = system: M19-MEL melanoma
DMS 273 small cell lung = system: DMS 273 small cell lung
NCI-H522 lung = system: NCI-H522 lung
LXFL 529 NSCLC = system: LXFL 529 NSCLC
DMS 114 small cell lung = system: DMS 114 small cell lung
XF 498 CNS = system: XF 498 CNS
SNB-78 CNS = system: SNB-78 CNS
RXF-631 renal = system: RXF-631 renal
KM20L2 colon = system: KM20L2 colon

| Structure (SMILES) | TGI (OVCAR-4 ovarian) [µM] | TGI (DLD-1 colon) [µM] | TGI (SN12C renal) [µM] | TGI (HOP-18 NSCLC) [µM] | TGI (LOX IMVI melanoma) [µM] | TGI (M19-MEL melanoma) [µM] | TGI (DMS 273 small cell lung) [µM] | TGI (NCI-H522 lung) [µM] | TGI (LXFL 529 NSCLC) [µM] | TGI (DMS 114 small cell lung) [µM] | TGI (XF 498 CNS) [µM] | TGI (SNB-78 CNS) [µM] | TGI (RXF-631 renal) [µM] | TGI (KM20L2 colon) [µM] |
| --- | --- | --- | --- | --- | --- | --- | --- | --- | --- | --- | --- | --- | --- | --- |
| CC([C@H]1CCC2C3CCC4CC5(CC[C@]4(C)C3CC[C@@]21C)c1ccccc1C(=O)N5C)N(C)C (some centres undefined) | > 100 | > 100 | > 100 | > 100 | 4.21 | 78.3 | 75.4 | > 100 | > 100 | > 100 |  |  |  |  |
| CC(Oc1ccc(OCC2CCCCC2)cc1)C(=O)O (centres undefined) | > 100 | > 100 | > 100 | > 100 | > 100 | > 100 | > 100 | > 100 | > 100 | > 100 | > 100 | > 100 |  |  |
| Nc1nc(N)c2nc(-c3ccco3)cnc2n1 |  | > 100 | > 100 | > 100 | > 100 | > 100 |  | > 100 | > 100 | > 100 | > 100 | > 100 | > 100 | > 100 |
